The source made the active and inactive calls.
Columns and labels:
[1] = molecular target: Photoreceptor-specific nuclear receptor (Homo sapiens, UniProt Q9Y5X4); type: functional;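 note: potency for compounds that break the NR2E3 corepressor complex and count as activators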
[2] = molecular target: Peroxisome proliferator-activated receptor gamma/Nuclear receptor corepressor 2 (Homo sapiens, UniProt P37231+Q9Y618); type: functional
[3] = molecular target: T1, Kappa-type opioid receptor (Homo sapiens, UniProt P41145); type: functional
[4] = molecular target: T2, Delta-type opioid receptor (Homo sapiens, UniProt P41143); assay: HTS Image-Based Screen for Antagonists of the DOR Receptor. [Related pubchem assays (depositor defined):AID1777, AID1785, AID1786, AID2133]; type: functional
Mu-type opioid receptor = Mu-type opioid receptor (Homo sapiens, UniProt P35372); assay: HTS Image-Based Screen for Agonists of the MOR Receptor. [Related pubchem assays (depositor defined):AID1777, AID1785, AID1786, AID2133]; type: functional;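 note: imaging of beta-arrestin GFP recruitment into spots after receptor activation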
[5] = molecular target: T1, Kappa-type opioid receptor; type: functional; remark: listed apart in the source
Beta-galactosidase [6] = molecular target: T3, Beta-galactosidase (Escherichia coli, UniProt Q8VNN2); type: functional
[7] = molecular target: T2, Delta-type opioid receptor; assay: HTS Image-Based Screen for Agonists of the DOR Receptor. [Related pubchem assays (depositor defined):AID1777, AID1786, AID2133]; type: functional
[8] = molecular target: Glyceraldehyde-3-phosphate dehydrogenase (Homo sapiens, UniProt P04406)
Bcl-2-like protein 10 = molecular target: T4, Bcl-2-like protein 10 (Homo sapiens, UniProt Q9HD36); assay: Bcl-B/TR3 peptide binding disruption – biochemical, fluorescence polarization, FITC-TR3 peptide, selectivity assay for Bfl-1 inhibitor project, primary screen (AID 748);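 note: fluorescence polarization from a fluorescein-labelled TR3 peptide binding purified Bcl-B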
T4 sequence (Q9HD36 whole entry): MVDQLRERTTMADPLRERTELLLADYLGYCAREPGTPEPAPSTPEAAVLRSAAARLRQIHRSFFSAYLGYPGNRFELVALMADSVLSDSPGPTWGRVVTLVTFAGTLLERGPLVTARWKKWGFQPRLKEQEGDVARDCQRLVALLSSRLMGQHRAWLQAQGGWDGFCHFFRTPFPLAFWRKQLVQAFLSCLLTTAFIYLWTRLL

[9] = molecular target: T5, Type-1 angiotensin II receptor (Homo sapiens, UniProt P30556); assay: antagonism of angiotensin II type 1 receptor – cell-based, uHTS hits, selectivity assay for APJ receptor antagonist project, dose response (AID 463214); type: functional;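 note: antagonist potency against angiotensin II stimulated AT1 response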
T5 sequence (P30556 whole entry): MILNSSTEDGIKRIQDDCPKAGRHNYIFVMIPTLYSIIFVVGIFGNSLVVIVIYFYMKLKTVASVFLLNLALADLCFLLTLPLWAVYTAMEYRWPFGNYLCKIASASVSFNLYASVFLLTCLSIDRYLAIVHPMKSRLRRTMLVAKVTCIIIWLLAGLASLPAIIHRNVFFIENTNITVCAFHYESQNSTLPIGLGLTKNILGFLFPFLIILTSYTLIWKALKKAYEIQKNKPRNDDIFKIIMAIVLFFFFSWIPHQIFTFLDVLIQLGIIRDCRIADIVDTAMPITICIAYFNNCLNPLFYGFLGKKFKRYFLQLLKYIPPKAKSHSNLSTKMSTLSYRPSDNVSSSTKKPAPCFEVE

[10] = loss of viability in HepG2 cells – cell-based, CellTiter-Glo, cherry-picked, cytotoxicity control for Shn3 inhibitor project, dose response (AID 624134); type: functional
[11] = Trypanosoma cruzi growth suppression in host cells – NIH3T3 host cells, beta-gal luminescence, confirmation (AID 2044); type: functional, cell-based;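 note: intracellular parasites grown in NIH/3T3 mouse fibroblasts as host cells; luminescent beta-galactosidase reporter signal from transgenic T. cruzi replicating inside host cells; inhibitors lower the luminescence signal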
Cytochrome P450 2C9 = Cytochrome P450 2C9 (Homo sapiens, UniProt P11712)
[12] = molecular target: 72 kDa type IV collagenase (Homo sapiens, UniProt P08253); assay: Dose Response validation of uHTS RPN11 inhibitor hits using a MMP-2 Fluorescence assay.; type: functional
[13] = NIH3T3 cell viability loss – ATP luminescence, mouse fibroblasts, counter-screen, dose response (AID 2010); type: functional, cell-based;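 note: cells exposed to compound for about 90 hours before reading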
[14] = Shn3 3'UTR reporter signal decrease – cell-based, Clone20 osteoblasts, firefly luciferase, cherry-pick, set 2, Schnurri-3 inhibitor project, dose response (AID 720490); type: functional;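 note: actives lower the luminescence signal as inhibitors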
[15] = molecular target: 26S proteasome non-ATPase regulatory subunit 14 (Homo sapiens, UniProt O00487); assay: inhibition of proteasome subunit RPN11 – biochemical, fluorescence polarization, uHTS hits, confirmation (AID 602368); type: functional
[16] = reduction of Shn3 3'UTR-driven luciferase in osteoblasts – cell-based, Clone20 osteoblasts, firefly luciferase, cherry-picked, dose response (AID 624132); type: functional;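 note: firefly luciferase luminescence from reporter carrying the Shn3 3'UTR in osteoblasts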
Prothrombin = Prothrombin (Bos taurus, UniProt P00735); assay: thrombin protease inhibitors – biochemical, fluorescence polarization, uHTS hits, dose response (AID 602369); type: functional
Beta-galactosidase [17] = molecular target: T3, Beta-galactosidase; assay: PubChem AID 485352; type: functional
Beta-galactosidase [18] = molecular target: T3, Beta-galactosidase; assay: detection-enzyme interference by beta-gal modulators – biochemical, E. coli enzyme, set 3, artefact control for CCR6 antagonist project, dose response (AID 504712); type: functional
[19] = molecular target: G-protein coupled receptor 35 (Homo sapiens, UniProt Q9HC97); assay: inhibition of zaprinast-stimulated GPR35 beta-arrestin translocation – imaging, U2OS, beta-arrestin-GFP, zaprinast agonist, primary screen (AID 2058); type: functional;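 note: antagonist potency meaning inhibition of agonist-induced arrestin redistribution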
[20] = HPDE-C7 pancreatic duct cell viability loss – fluorescence, HTS (AID 430); type: functional, cell-based; details: Homo sapiens
[21] = molecular target: T6, Heat shock factor protein 1 (Mus musculus, UniProt P38532); assay: enhancement of HSF1-driven luciferase signal – cell-based, NIH3T3, luminescence, dose retest, confirmation (AID 435004); type: functional;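 note: stress induced by proteasome inhibitor MG132 added 30 min after compound; luciferase reporter driven by HSF1 response element in NIH3T3 cells; actives raise luminescence as potentiators of the MG132 stress response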
T6 sequence (P38532 whole entry): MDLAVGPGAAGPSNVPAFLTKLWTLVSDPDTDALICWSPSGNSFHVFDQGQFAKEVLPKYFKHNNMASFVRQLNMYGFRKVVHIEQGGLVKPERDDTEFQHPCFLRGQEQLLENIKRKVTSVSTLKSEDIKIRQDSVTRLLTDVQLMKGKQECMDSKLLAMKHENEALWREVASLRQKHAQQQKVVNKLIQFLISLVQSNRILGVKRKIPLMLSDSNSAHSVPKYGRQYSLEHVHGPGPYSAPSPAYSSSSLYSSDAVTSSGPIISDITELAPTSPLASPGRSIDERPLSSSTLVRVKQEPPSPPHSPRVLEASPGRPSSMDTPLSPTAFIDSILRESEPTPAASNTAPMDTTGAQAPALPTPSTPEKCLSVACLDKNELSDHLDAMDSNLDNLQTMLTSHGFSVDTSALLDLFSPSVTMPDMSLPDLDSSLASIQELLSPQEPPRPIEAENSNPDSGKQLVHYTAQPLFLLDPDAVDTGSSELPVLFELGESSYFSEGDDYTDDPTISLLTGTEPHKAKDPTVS

[22] = microbe, parasite or virus in culture; type: functional; details: Mycobacterium tuberculosis
[23] = molecular target: Sphingosine 1-phosphate receptor 2 (Homo sapiens, UniProt O95136); assay: Dose Response Cell Based Assay for Antagonists of the S1P2 Receptor. [Related pubchem assays: 856, 736 ]; type: functional
[24] = viability loss of HPDE-C7K cells – cell-based, fluorescence, HTS, primary screen (AID 431); type: functional; details: Homo sapiens
[25] = molecular target: Polyadenylate-binding protein 1 (Homo sapiens, UniProt P11940); assay: blockers of PABP interaction with poly(A) – biochemical, fluorescence polarization, […] (AID 2014)
[26] = molecular target: Eukaryotic translation initiation factor 4H (Homo sapiens, UniProt Q15056); assay: eIF4H binding inhibition – biochemical, uHTS, fluorescence polarization, translation initiation inhibitor project, primary screen (AID 2012)
[27] = Luminescence-based cell-based high throughput dose response assay to identify activators of the DAF-12 from the parasite S. stercoralis (ssDAF-12).; type: functional
[28] = molecular target: T7, Oxysterols receptor LXR-beta (Homo sapiens, UniProt P55055); assay: LXR agonists, Gal4 luciferase reporter, dose response, counter-screen for ssDAF-12 agonist project, cell-based, luminescence, HEK293, S. stercoralis campaign (AID 720737); type: functional; details: read-out: IC50 (the source's name)
T7 sequence (P55055 whole entry): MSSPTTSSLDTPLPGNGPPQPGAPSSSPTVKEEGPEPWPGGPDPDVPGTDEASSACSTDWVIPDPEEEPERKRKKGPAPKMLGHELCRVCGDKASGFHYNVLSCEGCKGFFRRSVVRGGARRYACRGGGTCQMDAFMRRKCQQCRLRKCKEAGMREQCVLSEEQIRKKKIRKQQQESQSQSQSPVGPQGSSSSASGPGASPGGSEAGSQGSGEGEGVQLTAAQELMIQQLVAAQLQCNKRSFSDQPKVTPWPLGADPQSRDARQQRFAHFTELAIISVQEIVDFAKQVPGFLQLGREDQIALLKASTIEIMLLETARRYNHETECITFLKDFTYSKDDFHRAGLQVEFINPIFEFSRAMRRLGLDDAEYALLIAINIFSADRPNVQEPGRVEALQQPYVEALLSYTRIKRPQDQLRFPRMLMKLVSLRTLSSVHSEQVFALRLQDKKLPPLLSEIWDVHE

[29] = molecular target: Cyclin-dependent kinase 5/CDK5 activator 1 (Homo sapiens, UniProt Q00535); assay: blockade of human CDK5 activity – biochemical, cherry-picked samples, set 2, dose response (AID 504545)
[30] = molecular target: Dual specificity tyrosine-phosphorylation-regulated kinase 1A (Rattus norvegicus, UniProt Q63470); type: biochemical, Homo sapiens
[31] = HEK-293T cell viability reduction – luminescence, B-cell screen hits, cytotoxicity control for BCR NF-kB inhibitor project, dose response (AID 489021); type: functional, cell-based;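 note: HEK-293T cells carrying an NF-kB luciferase reporter; cells exposed to compound for about 14 hours before viability readout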

T1 sequence (P41145 whole entry): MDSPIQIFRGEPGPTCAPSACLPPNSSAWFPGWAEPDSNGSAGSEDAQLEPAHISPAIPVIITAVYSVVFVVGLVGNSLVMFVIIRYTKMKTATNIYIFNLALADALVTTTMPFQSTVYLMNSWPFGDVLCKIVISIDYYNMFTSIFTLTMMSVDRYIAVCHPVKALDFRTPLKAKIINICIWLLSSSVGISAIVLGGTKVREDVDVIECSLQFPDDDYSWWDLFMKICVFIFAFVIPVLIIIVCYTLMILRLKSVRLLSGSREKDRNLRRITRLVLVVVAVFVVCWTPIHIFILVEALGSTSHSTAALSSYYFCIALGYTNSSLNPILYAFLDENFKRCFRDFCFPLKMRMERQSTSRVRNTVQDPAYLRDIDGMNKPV
T2 sequence (P41143 whole entry): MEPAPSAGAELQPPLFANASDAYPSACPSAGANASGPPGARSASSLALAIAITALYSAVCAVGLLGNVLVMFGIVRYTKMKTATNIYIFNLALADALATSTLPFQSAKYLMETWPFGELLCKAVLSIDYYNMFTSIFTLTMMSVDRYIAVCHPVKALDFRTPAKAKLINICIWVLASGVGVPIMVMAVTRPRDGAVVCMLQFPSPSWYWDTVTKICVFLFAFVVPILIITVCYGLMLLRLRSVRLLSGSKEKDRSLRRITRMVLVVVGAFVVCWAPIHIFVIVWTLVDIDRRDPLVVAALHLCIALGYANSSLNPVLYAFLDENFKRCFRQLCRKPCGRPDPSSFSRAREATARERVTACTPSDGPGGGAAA
T3 sequence (Q8VNN2 whole entry): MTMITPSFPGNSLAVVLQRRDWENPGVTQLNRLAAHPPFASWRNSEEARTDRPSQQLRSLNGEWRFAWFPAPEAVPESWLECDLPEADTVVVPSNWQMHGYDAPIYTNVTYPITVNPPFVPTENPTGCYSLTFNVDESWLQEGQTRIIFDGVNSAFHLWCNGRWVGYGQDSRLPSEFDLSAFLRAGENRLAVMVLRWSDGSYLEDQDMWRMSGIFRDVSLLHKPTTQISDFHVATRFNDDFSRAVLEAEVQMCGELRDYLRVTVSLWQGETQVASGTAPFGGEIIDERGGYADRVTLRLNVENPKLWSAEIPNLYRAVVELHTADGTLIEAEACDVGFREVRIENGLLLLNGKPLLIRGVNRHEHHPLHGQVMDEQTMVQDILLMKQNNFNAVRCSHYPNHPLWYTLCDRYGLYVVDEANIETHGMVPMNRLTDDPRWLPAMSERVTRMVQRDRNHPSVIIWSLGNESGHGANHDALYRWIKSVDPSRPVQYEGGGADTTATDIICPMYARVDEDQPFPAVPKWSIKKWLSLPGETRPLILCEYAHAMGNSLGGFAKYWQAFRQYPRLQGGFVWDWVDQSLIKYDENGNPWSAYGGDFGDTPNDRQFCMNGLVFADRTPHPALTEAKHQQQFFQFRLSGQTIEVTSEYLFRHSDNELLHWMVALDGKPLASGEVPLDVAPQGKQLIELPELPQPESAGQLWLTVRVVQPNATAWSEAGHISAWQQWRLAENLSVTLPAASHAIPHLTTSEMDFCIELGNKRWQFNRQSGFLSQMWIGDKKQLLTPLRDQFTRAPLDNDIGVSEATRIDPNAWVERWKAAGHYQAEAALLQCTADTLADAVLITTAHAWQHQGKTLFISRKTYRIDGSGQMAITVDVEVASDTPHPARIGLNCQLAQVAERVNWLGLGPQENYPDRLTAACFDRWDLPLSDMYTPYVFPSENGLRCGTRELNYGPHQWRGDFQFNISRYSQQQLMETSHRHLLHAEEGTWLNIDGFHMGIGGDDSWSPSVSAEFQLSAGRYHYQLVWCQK
Cyclin-dependent kinase 5/CDK5 activator 1, sequence (Q00535 whole entry): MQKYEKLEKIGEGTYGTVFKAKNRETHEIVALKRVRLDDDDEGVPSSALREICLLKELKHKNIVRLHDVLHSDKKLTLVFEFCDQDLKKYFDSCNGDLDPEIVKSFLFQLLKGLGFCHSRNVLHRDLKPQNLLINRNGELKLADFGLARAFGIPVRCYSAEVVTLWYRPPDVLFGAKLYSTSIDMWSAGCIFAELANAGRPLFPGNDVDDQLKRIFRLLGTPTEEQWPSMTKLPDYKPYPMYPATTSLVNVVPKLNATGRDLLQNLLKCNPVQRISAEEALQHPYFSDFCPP
Cyclin-dependent kinase 5/CDK5 activator 1, sequence (Q15078 whole entry, further chain): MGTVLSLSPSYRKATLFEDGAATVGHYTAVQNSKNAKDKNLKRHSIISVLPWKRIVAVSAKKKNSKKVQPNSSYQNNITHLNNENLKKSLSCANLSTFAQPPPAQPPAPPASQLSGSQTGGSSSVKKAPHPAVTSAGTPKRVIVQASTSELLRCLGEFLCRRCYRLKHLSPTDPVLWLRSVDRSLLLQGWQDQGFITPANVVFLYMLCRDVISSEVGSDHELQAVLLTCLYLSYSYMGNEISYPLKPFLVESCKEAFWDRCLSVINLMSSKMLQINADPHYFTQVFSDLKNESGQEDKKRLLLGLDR
Photoreceptor-specific nuclear receptor, sequence (Q9Y5X4 whole entry): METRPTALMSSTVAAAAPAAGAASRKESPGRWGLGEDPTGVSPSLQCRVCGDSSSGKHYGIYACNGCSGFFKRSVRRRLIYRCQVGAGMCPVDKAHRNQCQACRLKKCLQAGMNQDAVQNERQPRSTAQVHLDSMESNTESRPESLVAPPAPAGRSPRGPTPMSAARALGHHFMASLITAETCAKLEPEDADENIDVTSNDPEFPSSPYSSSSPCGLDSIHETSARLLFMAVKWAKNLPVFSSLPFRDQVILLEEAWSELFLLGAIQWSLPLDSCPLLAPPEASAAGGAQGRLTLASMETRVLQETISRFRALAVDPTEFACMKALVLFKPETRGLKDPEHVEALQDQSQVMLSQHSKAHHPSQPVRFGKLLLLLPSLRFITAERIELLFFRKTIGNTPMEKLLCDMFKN
Mu-type opioid receptor, sequence (P35372 whole entry): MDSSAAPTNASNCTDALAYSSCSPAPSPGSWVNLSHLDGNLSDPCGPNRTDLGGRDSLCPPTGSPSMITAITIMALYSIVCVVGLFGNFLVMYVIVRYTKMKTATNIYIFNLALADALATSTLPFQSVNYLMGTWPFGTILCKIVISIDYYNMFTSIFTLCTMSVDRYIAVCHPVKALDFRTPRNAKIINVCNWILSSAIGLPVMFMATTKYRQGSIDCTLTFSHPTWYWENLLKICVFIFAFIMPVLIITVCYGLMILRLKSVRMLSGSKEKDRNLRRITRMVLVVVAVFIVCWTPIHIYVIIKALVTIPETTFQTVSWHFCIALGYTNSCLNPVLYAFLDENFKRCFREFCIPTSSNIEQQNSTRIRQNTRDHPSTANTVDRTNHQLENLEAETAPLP
Sphingosine 1-phosphate receptor 2, sequence (O95136 whole entry): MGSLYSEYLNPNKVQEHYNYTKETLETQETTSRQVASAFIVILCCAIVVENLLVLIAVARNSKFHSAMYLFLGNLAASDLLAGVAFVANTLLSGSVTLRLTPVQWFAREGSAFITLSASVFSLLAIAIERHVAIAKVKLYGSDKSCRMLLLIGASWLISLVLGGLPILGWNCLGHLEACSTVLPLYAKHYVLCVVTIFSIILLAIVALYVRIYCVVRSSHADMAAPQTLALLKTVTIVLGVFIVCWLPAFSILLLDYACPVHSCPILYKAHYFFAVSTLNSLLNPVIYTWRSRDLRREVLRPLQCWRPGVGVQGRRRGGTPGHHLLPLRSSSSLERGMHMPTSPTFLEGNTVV
G-protein coupled receptor 35, sequence (Q9HC97 whole entry): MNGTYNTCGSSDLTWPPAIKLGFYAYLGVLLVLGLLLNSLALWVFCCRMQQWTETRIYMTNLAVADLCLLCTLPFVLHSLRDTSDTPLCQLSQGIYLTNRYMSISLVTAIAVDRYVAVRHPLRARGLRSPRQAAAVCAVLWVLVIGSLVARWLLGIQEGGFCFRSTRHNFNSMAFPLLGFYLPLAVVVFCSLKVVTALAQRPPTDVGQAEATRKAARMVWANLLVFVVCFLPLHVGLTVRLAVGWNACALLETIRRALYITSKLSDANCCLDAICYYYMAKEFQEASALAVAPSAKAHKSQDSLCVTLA
26S proteasome non-ATPase regulatory subunit 14, sequence (O00487 whole entry): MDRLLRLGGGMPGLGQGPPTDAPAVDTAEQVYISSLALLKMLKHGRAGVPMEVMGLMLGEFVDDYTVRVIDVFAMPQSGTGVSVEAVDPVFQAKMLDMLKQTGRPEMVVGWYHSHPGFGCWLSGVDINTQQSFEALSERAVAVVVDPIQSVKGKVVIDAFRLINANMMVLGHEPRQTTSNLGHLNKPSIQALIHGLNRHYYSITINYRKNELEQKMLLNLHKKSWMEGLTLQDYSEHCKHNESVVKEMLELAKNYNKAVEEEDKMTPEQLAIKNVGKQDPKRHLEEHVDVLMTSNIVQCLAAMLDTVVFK
Glyceraldehyde-3-phosphate dehydrogenase, sequence (P04406 whole entry): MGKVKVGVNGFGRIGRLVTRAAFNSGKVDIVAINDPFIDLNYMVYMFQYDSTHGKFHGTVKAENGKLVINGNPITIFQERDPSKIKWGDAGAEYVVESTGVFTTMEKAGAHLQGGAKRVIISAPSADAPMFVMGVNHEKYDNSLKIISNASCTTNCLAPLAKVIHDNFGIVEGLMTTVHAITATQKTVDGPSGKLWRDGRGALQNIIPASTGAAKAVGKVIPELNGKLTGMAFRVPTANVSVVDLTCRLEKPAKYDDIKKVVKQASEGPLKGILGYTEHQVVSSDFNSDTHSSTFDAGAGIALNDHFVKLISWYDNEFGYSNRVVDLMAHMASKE

N#Cc1ccc(Cl)cc1NC(=O)COC(=O)c1ccc2c(c1)OCCO2
IC50 [1]: > 39.8 µM (not active) | IC50 [2]: 2.78 µM (active)

COc1cc2c(c(OC)c1OC)-c1c(cc3c(c1OC)OCO3)C1OC2[C@@H](C)[C@H]1C (stereo partly specified)
IC50 [3]: 10 µM (active) | IC50 [4]: > 32 µM (inactive) | EC50 (Mu-type opioid receptor): > 32 µM (inactive) | IC50 [5]: 9.42 µM | EC50 (Beta-galactosidase [6]): > 31.5 µM (inactive) | EC50 [7]: > 32 µM (inactive)

O=C(O)CSc1ccc2cc(O)ccc2c1
IC50 [8]: > 100 µM (not active)

O=C(NCCN1CCCCCC1)C1CCC(CNS(=O)(=O)c2cccc3cccnc23)CC1 (stereo unspecified)
IC50 (Bcl-2-like protein 10): > 100 µM (inactive)

Cc1cccc(CSc2cccc3cccnc23)c1
IC50 [9]: 10.1 µM (active) | AC50 [10]: > 70 µM (inactive) | IC50 [3]: 8.68 µM (active) | IC50 [4]: > 32 µM (inactive) | EC50 [11]: 0.307 µM (active) | AC50 (Cytochrome P450 2C9): inconclusive | IC50 [12]: > 100 µM (inactive) | EC50 (Mu-type opioid receptor): > 32 µM (inactive) | EC50 [13]: 9.65 µM (active) | IC50 [5]: > 32 µM | AC50 [14]: 7.99 µM (active) | IC50 [15]: 21.5 µM (active) | EC50 (Beta-galactosidase [6]): > 31.5 µM (inactive) | AC50 [16]: 2.54 µM (active) | EC50 [7]: > 32 µM (inactive) | IC50 (Prothrombin): > 100 µM (inactive) | EC50 (Beta-galactosidase [17]): > 40 µM (inactive)

CCN(CC(=O)NC(C)(C)C)Cc1nc(O)c2cc(Br)cc(Br)c2n1
IC50 (Beta-galactosidase [18]): > 66.6 µM (inactive) | IC50 [1]: > 39.8 µM (not active) | IC50 [2]: 15 µM (not active)

CCN(CC)c1ccc2c(Cl)c(Br)c(=O)oc2c1
IC50 [19]: < 0.5 µM (active) | EC50 [20]: 3.1 µM (active) | EC50 [21]: 2.75 µM (inconclusive) | EC50 [11]: 2.96 µM (active) | CC50 [22]: > 40 µM (active) | IC50 [23]: 2.53 µM (active) | EC50 [13]: 4.88 µM (active) | EC50 [24]: 2.08 µM (active)

c1cc[n+](CCC[n+]2ccccc2)cc1
IC50 [25]: 3.68 µM (active) | IC50 [26]: 96.5 µM (active)

O=C(O)c1ccc(/C=N/Nc2ccc(C(F)(F)F)cn2)cc1
IC50 [27]: > 67.6 µM (inactive) | EC50 [28]: > 67.6 µM (inactive) | AC50 [29]: 5.54 µM (active) | AC50 [30]: 7.95 µM (active)

Nc1ccc(-c2cnc(N)c(C(=O)c3cccnc3)n2)cn1
AC50 [29]: 36.7 µM (active)

OCCC/N=C/c1c(-c2ccccc2)nn(-c2nc3ccccc3s2)c1O
IC50 [31]: > 80 µM (inactive)

— ChEMBL document CHEMBL1201862, “PubChem BioAssay data set” (2004)
